Laboratory results reported in patent US20230132823A1, “BI-FUNCTIONAL COMPOUNDS AND METHODS FOR TARGETED UBIQUITINATION OF ANDROGEN RECEPTOR” (MONTELINO THERAPEUTICS, INC., priority 2020, published 2023).

Columns and labels:
[1] = system: 22Rv1; test: 22Rv1 cell proliferation assay (Experimental Example 1, cell count); format: cell-based; settings: Homo sapiens, 22Rv1, read-out: 22Rv1 cell count decrease at 10 μM for 48 hours; 10 μM (method: four days); read-out: 22Rv1 cell count decrease at 10 μM
Description: The human prostate cancer cell line, 22Rv1 has been reported to express a high level of AR-V7. […] Standard culture media was RPMI-1640 supplemented with 10% fetal bovine serum. The test compound initially was dissolved in DMSO at 50 mM. This stock solution was then diluted as needed for the indicated concentrations. […]
In the Table: (+)—the cell count decreased between 0 and 20%; (++)—the cell count decreased […]; (+++)—the cell count decreased by more than 50%.

[2] = system: 22Rv1-Enz^R cells; test: 22Rv1-Enz^R cell proliferation (cell count, Experimental Example 3); format: cell-based, human; settings: 10 μM, 4 days, MG-132 (5 μM) pretreatment
Description: The human prostate cancer cell line, 22Rv1 has been reported to express a high level of AR-V7. Thus, 22Rv1 was seeded at 50,000 cells/well on a 24-well plate in quadruplicates and treated with test compound in concentrations ranging up to 20 μM for four days. Standard culture media was RPMI-1640 supplemented with 10% fetal bovine serum. The test compound initially was dissolved in DMSO at 50 mM. This stock solution was then diluted as needed for the indicated concentrations. At the end of the four-day period, cells were harvested using 1% trypsin and counted using an automated cell counter.
Cell Culture. Human CaP cell lines, LNCaP, 22Rv1, VCaP, PC3, and DU145 are obtained from the American Type Culture Collection (ATCC) and maintained in the standard culture media: RPMI-1640 supplemented with 10% fetal bovine serum (FBS). LNCaP, 22Rv1, and VCaP are androgen-responsive cell lines, while PC3 and DU145 are not. To establish SAT resistant CaP cell lines, LNCaP, 22Rv1, and VCaP are treated continuously with 10-50 μM abiraterone, apalutamide, darolutamide, or enzalutamide. After 3-6 months, stable cell lines are established and designated as LNCaP-Abi^R, LNCaP-Apa^R, LNCaP-Daro^R, LNCaP-Enz^R, VCaP-Abi^R, VCaP-Apa^R, VCaP-Daro^R, VCaP-Enz^R, 22Rv1-Abi^R, 22Rv1-Apa^R, 22Rv1-Daro^R and 22Rv1-Enz^R. Unless otherwise specified, the standard culture media for these SAT-resistant cell lines included 10 μM of their respective SAT. For the proteasome inhibitor study, the inhibitors MG132 and Epoxomicin are used. The E3 ligase inhibitors Heclin, Nutlin 3a, Thalidomide, and VH298 are used. Cell lines obtained from ATCC are confirmed by checking their morphology using optical microscopy, establishing baselines for cell proliferation, verifying species of origin using isoenzymology, and characterizing the cell's DNA fingerprint using short tandem repeat (STR) profiling. Mycoplasma contamination is also assessed using a PCR based detection system.

[3] = system: 22Rv1 cells; test: Apoptosis assay (annexin-V, TUNEL) in 22Rv1; format: cell-based, human; settings: 22Rv1, 1 μM, 0 to 48 hours; starts approximately three hours after treatment, increases through 48 hours
Description: Apoptosis Assay. An apoptosis assay is carried out using the Thermo Fisher ApoDETECT Annexin V-FITC kit following the protocol recommended by the vendor. […] Then, fixed cells are incubated with Annexin V-FITC in PBS solution for 30 minutes at room temperature. After washing three times with PBS, cells are treated with 300 nM DAPI in PBS for 5 minutes at room temperature. Finally, after washing three times with PBS, mounting solution is added and the cells are visualized using immunofluorescence microscopy. Next, a TUNEL assay is performed using Promega DeadEnd Fluorometric TUNEL system. After treatment with Test Compound and fixation as described above in the Annexin-V experiment, 100 μl of equilibration buffer is incubated for 10 min. Then, 50 μl of TdT reaction mix is added and incubated for 60 min at 37° C. in a humidified chamber. Finally, stop solution is added and samples are mounted on slides using mounting medium. To assess non-specific cytotoxicity, an LDH assay kit is used.

With Cl.NCCCCCCCCCCNc1cccc2c1C(=O)N(C1CCC(=O)NC1=O)C2=O (centres unmarked) [Example 34, 4-((10-aminodecyl)amino)-2-(2,6-dioxopiperidin-3-yl)isoindoline-1,3-dione hydrochloride] the inhibition at 10 µM [1] was less than 50% and the “reduction of 22Rv1-Enz^R cell counts after pretreatment with MG-132” value [2] was “substantially blocked”.

CN[C@@H](C)C(=O)N[C@H](C(=O)N1Cc2cc(OCCOCCOc3c(-c4csc(N5CCOCC5)n4)ccc(F)c3F)ccc2C[C@H]1C(=O)N[C@@H]1CCCc2ccccc21)C(C)(C)C.Cl.Cl [Example 35, (S)-7-(2-(2-(2,3-difluoro-6-(2-morpholinothiazol-4-yl)phenoxy)ethoxy)ethoxy)-2-((S)-3,3-dimethyl-2-((S)-2-(methylamino)propanamido)butanoyl)-N-((R)-1,2,3,4-tetrahydronaphthalen-1-yl)-1,2,3,4-tetrahydroisoquinoline-3-carboxamide dihydrochloride] was tested, and the inhibition at 10 µM [1] was greater than 50% and the “reduction of 22Rv1-Enz^R cell counts after pretreatment with MG-132” value [2] was “substantially blocked”.

For O=C(O)CCCCNC(=O)COc1c(-c2csc(N3CCOCC3)n2)ccc(F)c1F [Example C1, reference compound], the “apoptosis, annexin-V assay” value [3] was “no change in apoptosis”.
